Assay results taken from US6500853B1, “Inhibitors of phospholipase enzymes” (Genetics Institute, LLC, priority 1998, dated 2002).
Values belong to the molecule of their own block, whether it stands above or below them.

Molecular target: T1, cPLA2 (Homo sapiens, UniProt P47712)
T1 sequence (P47712 1-749): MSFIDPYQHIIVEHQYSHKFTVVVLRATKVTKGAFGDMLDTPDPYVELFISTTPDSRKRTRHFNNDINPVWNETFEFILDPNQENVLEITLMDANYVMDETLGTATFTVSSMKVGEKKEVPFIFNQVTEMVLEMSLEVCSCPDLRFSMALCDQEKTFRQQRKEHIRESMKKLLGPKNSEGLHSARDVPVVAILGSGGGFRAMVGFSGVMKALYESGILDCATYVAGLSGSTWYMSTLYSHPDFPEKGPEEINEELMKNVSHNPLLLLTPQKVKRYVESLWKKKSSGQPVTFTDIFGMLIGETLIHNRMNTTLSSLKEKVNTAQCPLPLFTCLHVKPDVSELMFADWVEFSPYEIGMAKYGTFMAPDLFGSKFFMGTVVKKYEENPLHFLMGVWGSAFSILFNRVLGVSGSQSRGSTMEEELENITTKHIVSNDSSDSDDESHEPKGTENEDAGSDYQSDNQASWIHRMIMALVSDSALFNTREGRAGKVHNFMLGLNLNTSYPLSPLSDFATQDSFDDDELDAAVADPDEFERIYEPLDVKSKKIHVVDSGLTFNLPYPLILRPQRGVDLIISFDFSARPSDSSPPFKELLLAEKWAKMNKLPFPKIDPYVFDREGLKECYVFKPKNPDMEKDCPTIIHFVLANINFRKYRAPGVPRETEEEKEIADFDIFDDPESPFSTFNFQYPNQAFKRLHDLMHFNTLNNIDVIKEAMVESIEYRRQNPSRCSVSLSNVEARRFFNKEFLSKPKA
Experiment: Coumarin Assay (cPLA2 inhibition)
Type: biochemical
Details: for inhibition at 0.4 µM: read-out: PERCENT INHIBITION @; for inhibition at 2.5 µM: Conc 2.5 uM; for inhibition at 3 µM: Conc 3 uM; for inhibition at 3.3 µM: Conc 3.3 uM
How it was run: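 Percent inhibition at the stated concentration, from the rate of 460 nm emission rise (360 nm excitation) per minute. Reaction started by adding 4 μg enzyme to compound and 60 μM 7-hydroxycoumarinyl 6-heptenoate in Hepes buffer pH 7.5 with 1 mM EDTA.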

SMILES: COc1cc(C(=O)O)ccc1Cc1cn(C(c2ccccc2)c2ccc(N)cc2)c2cc(Cl)ccc12 (stereo not drawn) [Example 132, ′4-({1-[(4-aminophenyl)(phenyl)methyl]-6-chloro-1H-indol-3-yl}methyl)-3-methoxybenzoic acid]
PERCENT INHIBITION @ (CONCENTRATION 0.4 micromolar): 50%

SMILES: COc1ccc(C(c2ccccc2)n2cc(Cc3ccc(C(=O)O)cc3OC)c3ccc(Cl)cc32)cc1 (stereo not drawn) [Example 133, ′4-({6-chloro-1-[(4-methoxyphenyl)(phenyl)methyl]-1H-indol-3-yl}methyl)-3-methoxybenzoic acid]
PERCENT INHIBITION @ (CONCENTRATION 0.3 micromolar): 50%

PERCENT INHIBITION @ (CONCENTRATION 0.8 micromolar): 50%
SMILES: COc1ccc(C(c2ccc(OC)cc2)n2cc(Cc3ccc(C(=O)O)cc3OC)c3ccc(Cl)cc32)cc1 [Example 134, ′4-({1-[bis(4-methoxyphenyl)methyl]-6-chloro-1H-indol-3-yl}methyl)-3-methoxybenzoic acid]

SMILES: COc1cc(C(=O)O)ccc1Cc1cn(C(c2ccccc2)c2ccccc2N2CCOCC2)c2cc(Cl)ccc12 (stereo not drawn) [Example 135, ′4-({6-chloro-1-[(2-morpholinophenyl)(phenyl)methyl]-1H-indol-3-yl}methyl)-3-methoxybenzoic acid]
PERCENT INHIBITION @ (CONCENTRATION 0.7 micromolar): 50%

inhibition at 0.4 µM (CONCENTRATION 0.4 micromolar): 50%
SMILES: COc1ncc(C(c2ccccc2)n2cc(Cc3ccc(C(=O)O)cc3OC)c3ccc(Cl)cc32)c(OC)n1 (stereo not drawn) [Example 136, 4-({6-chloro-1-[(2,4-dimethoxy-5-pyrimidinyl)(phenyl)methyl]-1H-indol-3-yl}methyl)-3-methoxybenzoic acid]

PERCENT INHIBITION @ (CONCENTRATION 0.8 micromolar): 50%
SMILES: COc1cc(C(=O)O)ccc1Cc1cn(C(c2ccccc2)c2ccccc2)c2cc(Cl)ccc12 [Example 137, ′4-[(1-benzhydryl-6-chloro-1H-indol-3-yl)methyl]-3-methoxybenzoic acid]

inhibition at 0.4 µM (CONCENTRATION 0.4 micromolar): 50%
SMILES: COc1cc(C(=O)NCC(=O)O)ccc1Cc1cn(C(c2ccccc2)c2ccccc2)c2cc(Cl)ccc12 [Example 138, 2-({4-[(1-benzhydryl-6-chloro-1H-indol-3-yl)methyl]-3-methoxybenzoyl}amino)acetic acid]

inhibition at 1.6 µM (Conc 1.6 uM, read-out: % Inhibition): 50%
SMILES: Cc1c(CCS(=O)(=O)c2ccc(C(=O)O)cc2)c2cc(F)ccc2n1C(c1ccccc1)c1ccccc1 [Example 139, 4-{[2-(1-benzhydryl-5-fluoro-2-methyl-1H-indol-3-yl)ethyl]sulfonyl}benzoic acid]

inhibition at 2.5 µM (read-out: % Inhibition): 50%
SMILES: Cc1c(CCS(=O)(=O)c2ccc(C(=O)O)cc2)c2ccc(Cl)cc2n1C(c1ccccc1)c1ccccc1 [Example 140, 4-{[2-(1-benzhydryl-6-chloro-2-methyl-1H-indol-3-yl)ethyl]sulfonyl}benzoic acid]

inhibition at 1.4 µM (Conc 1.4 uM, read-out: % Inhibition): 50%
SMILES: Cc1c(CCS(=O)(=O)c2ccc(C(=O)O)cc2)c2c(Cl)c(Cl)ccc2n1C(c1ccccc1)c1ccccc1 [Example 141, 4-{[2-(1-benzhydryl-4,5-dichloro-2-methyl-1H-indol-3-yl)ethyl]sulfonyl}benzoic acid]

SMILES: Cc1c(CCS(=O)(=O)c2ccc(C(=O)O)cc2)c2cc(Cl)c(Cl)cc2n1C(c1ccccc1)c1ccccc1 [Example 142]
% Inhibition (Conc 1.4 uM): 50%

inhibition at 3 µM (read-out: % Inhibition): 50%
SMILES: Cc1c(CCS(=O)(=O)c2ccc(C(=O)O)cc2)c2ccccc2n1C(c1ccccc1)c1ccccc1 [Example 143, 4-{[2-(1-benzhydryl-2-methyl-1H-indol-3-yl)ethyl]sulfonyl}benzoic acid]

inhibition at 12 µM (Conc 12 uM, read-out: % Inhibition): 50%
SMILES: COc1ccc2c(c1)c(CCS(=O)(=O)c1ccc(C(=O)O)cc1)c(C)n2C(c1ccccc1)c1ccccc1 [Example 144, 4-{[2-(1-benzhydryl-5-methoxy-2-methyl-1H-indol-3-yl)ethyl]sulfonyl}benzoic acid]

inhibition at 2.6 µM (Conc 2.6 uM): 50%
SMILES: Cc1c(CCOc2ccc(C(=O)O)cc2)c2cc(Br)ccc2n1C(c1ccccc1)c1ccccc1 [Example 145, 4-[2-(1-benzhydryl-5-bromo-2-methyl-1H-indol-3-yl)ethoxy]benzoic acid]

SMILES: Cc1c(CCSc2ccc(C(=O)O)cc2)c2cc(Cl)ccc2n1C(c1ccccc1)c1ccccc1 [Example 146, 4-{[2-(1-benzhydryl-5-chloro-2-methyl-1H-indol-3-yl)ethyl]sulfany}benzoic acid]
% Inhibition (Conc 1.6 uM): 50%

inhibition at 2.4 µM (Conc 2.4 uM, read-out: % Inhibition): 50%
SMILES: Cc1c(CCS(=O)(=O)c2ccc(C(=O)O)cc2)c2cc(Cl)ccc2n1C(c1ccccc1)c1ccccc1 [Example 147, 4-{[2-(1-benzhydryl-5-chloro-2-methyl-1H-indol-3-yl)ethyl]sulfonyl}benzoic acid]

inhibition at 2.8 µM (Conc 2.8 uM): 50%
SMILES: Cc1c(CC[S+]([O-])c2ccc(C(=O)O)cc2)c2cc(Cl)ccc2n1C(c1ccccc1)c1ccccc1 (stereo not drawn) [Example 148, 4-{[2-(1-benzhydryl-5-chloro-2-methyl-1H-indol-3-yl)ethyl]sulfinyl}benzoic acid]

inhibition at 2.5 µM (read-out: % Inhibition): 50%
SMILES: Cc1c(CCOc2ccc(C(=O)O)cc2)c2cc(Cl)ccc2n1C(c1ccccc1)c1ccccc1 [Example 149, 4-[2-(1-benzhydryl-5-chloro-2-methyl-1H-indol-3-yl)ethoxy]benzoic acid]

inhibition at 2.5 µM (read-out: % Inhibition): 50%
SMILES: O=Cc1c(CCOc2ccc(C(=O)O)cc2)c2cc(Cl)ccc2n1C(c1ccccc1)c1ccccc1 [Example 150, 4-[2-(1-benzhydryl-5-chloro-2-formyl-1H-indol-3-yl)ethoxy]benzoic acid]

inhibition at 3.3 µM: 50%
SMILES: O=C(O)c1ccc(OCCc2c(CO)n(C(c3ccccc3)c3ccccc3)c3ccc(Cl)cc23)cc1 [Example 151, 4-{2-[1-benzhydryl-5-chloro-2-(hydroxymethyl)-1H-indol-3-yl]ethoxy}benzoic acid]

inhibition at 3.3 µM: 50%
SMILES: COCc1c(CCOc2ccc(C(=O)O)cc2)c2cc(Cl)ccc2n1C(c1ccccc1)c1ccccc1 [Example 152, 4-{2-[1-benzhydryl-5-chloro-2-(methoxymethyl)-1H-indol-3-yl]ethoxy}benzoic acid]

inhibition at 3 µM (read-out: % Inhibition): 50%
SMILES: O=C(O)c1ccc(OCCc2c(CS(=O)(=O)c3ccccc3)n(C(c3ccccc3)c3ccccc3)c3ccc(Cl)cc23)cc1 [Example 153, 4-(2-{1-benzhydryl-5-chloro-2-[(phenylsulfonyl)methyl]-1H-indol-3-yl}ethoxy)benzoic acid]

inhibition at 5.5 µM (Conc 5.5 uM, read-out: % Inhibition): 50%
SMILES: CS(=O)(=O)Cc1c(CCOc2ccc(C(=O)O)cc2)c2cc(Cl)ccc2n1C(c1ccccc1)c1ccccc1 [Example 154, 4-(2-{1-benzhydryl-5-chloro-2-[(methylsulfonyl)methyl]-1H-indol-3-yl}ethoxy)benzoic acid]

inhibition at 2.2 µM (Conc 2.2 uM, read-out: % Inhibition): 50%
SMILES: O=C(O)c1ccc(OCCc2c(COCc3ccccc3[N+](=O)[O-])n(C(c3ccccc3)c3ccccc3)c3ccc(Cl)cc23)cc1 [Example 155, 4-[2-(1-benzhydryl-5-chloro-2-{[(2-nitrobenzyl)oxy]methyl}-1H-indol-3-yl)ethoxy]benzoic acid]

inhibition at 1 µM (Conc 1 uM, read-out: % Inhibition): 50%
SMILES: O=C(O)c1ccc(OCCc2c(COCc3c(F)cccc3F)n(C(c3ccccc3)c3ccccc3)c3ccc(Cl)cc23)cc1 [Example 156, 4-[2-(1-benzhydryl-5-chloro-2-{[(2,6-difluorobenzyl)oxy]methyl}-1H-indol-3-yl)ethoxy]benzoic acid]

inhibition at 3.8 µM (Conc 3.8 uM, read-out: % Inhibition): 50%
SMILES: O=C(O)c1ccc(S(=O)(=O)CCc2c(CO)n(C(c3ccccc3)c3ccccc3)c3ccc(Cl)cc23)cc1 [Example 157, 4-({2-[1-benzhydryl-5-chloro-2-(hydroxymethyl)-1H-indol-3-yl]ethyl}sulfonyl)benzoic acid]

inhibition at 1.7 µM (Conc 1.7 uM): 50%
SMILES: O=C(O)c1ccc(OCCc2c(COCc3ccccn3)n(C(c3ccccc3)c3ccccc3)c3ccc(Cl)cc23)cc1 [Example 158, 4-(2-{1-benzhydryl-5-chloro-2-[(2-pyridinylmethoxy)methyl]-1H-indol-3-yl}ethoxy)benzoic acid]
